Laboratory results: PubChem BioAssay AID1963845 (Molecular Pharmacology Branch, DTP, NCI, 2024)
Several values for one entry are separate records, joined by “and”; a condition that tells them apart may be missing. Equal entries are not always repeated.

Test system: 429239-143-T-J1-PDC complex spheroid viability
Assay: Anticancer human tumor 429239-143-T-J1-PDC patient-derived small cell lung carcinoma cell line growth inhibition [POLQ]
Settings: for viability, T/C: stronger effect = lower value
Method: Multicellular complex tumor spheroid response to Polymerase (POL) inhibitors (novobiocin, ART-558, RP6685) in combination with a variety of drugs and investigational agents in selected tumor cell lines
The POL inhibitors (novobiocin, ART-558, and RP6685) were evaluated both individually and in combination with standard of care and investigational anticancer small molecules within a complex spheroid model of solid tumors. . Complex spheroids include a stromal component modeled by human endothelial cells (HUVEC) and fibroblasts modeled by human mesenchymal stem cells (MSCs). The concentration ranges selected for each drug and investigational agent were based upon clinically achievable concentrations if the clinical Cmax of the agent was known.
Compounds. The drugs and investigational agents: novobiocin (NSC847541), ART-558 (NSC835418), RP-6685 (NSC848927), peposertib (NSC802822), ceralasertib (NSC780249), elimusertib (NSC800525), camonsertib (NSC841442), AZD-1390 (NSC803789), olaparib (NSC753686), talazoparib (NSC767125), rucaparib (NSC756644), sotorasib (NSC818433), MRTX-1133 (NSC836407), SN-38 (NSC673596), topotecan (NSC609699), epotoside (NSC141540), doxorubicin (NSC123127), gemcitabine (NSC613327), 5-fluorouracil (NSC19893), paclitaxel (NSC125973), vemurafenib (NSC761431), MSA-2 (NSC828583), SN-011 (NSC837082), adavosertib (NSC754352), prexasertib (NSC758257), carboplatin (NSC241240) and oxaliplatin (NSC266046), were obtained from the National Cancer Institute (NCI) Developmental Therapeutics Program Chemical Repository (21). The FDA-approved anticancer drug set is available from the Developmental Therapeutics Program at https://dtp.cancer.gov/organization/dscb/obtaining/. […] The stock solutions were prepared in dimethyl sulfoxide (DMSO, Sigma-Aldrich, St. Louis, MO, cat. D2650), except for the platinum compounds which were prepared in saline (Quality Biological, Gaithersburg, MD, cat. 114-055-101), at 800-fold the tested concentration and stored at -70 degrees C prior to their use. All drugs and investigational agents were tested over a range starting from a high concentration at or near the clinical Cmax and decreasing in half-log increments. If the clinical Cmax for an agent had not been determined, the highest concentration tested was 10 microM, except for SN-38, which was tested at a high concentration of 1 microM.
Cell Culture. All cells were maintained in an incubator at 37 degrees C and 5% CO2 with 95% humidity. The PDC lines were cultured according to standard operating procedures established by the NCI PDMR (https://pdmr.cancer.gov). Table 3 of the manuscript, lists the cell lines along with the number of the three cell types plated to form the mct-spheroids and media for tumor cell growth. After thawing, all PDC lines, except 997537-175-T-J1-PDC and 415267-285-R-J2-PDC, were cultured in Matrigel-coated flasks prepared with a working solution of 1X Ham's F-12 nutrient mix, without supplementation (Thermo Fisher Scientific, cat. 11765054), 100 U/mL penicillin-streptomycin (Thermo Fisher Scientific, cat. 15140122), and 2.5% Matrigel (Corning Inc., Corning, NY, cat. 354248) for the first three passages. The two PDC lines 997537-175-T-J1-PDC and 415267-285-R-J2-PDC were cultured on uncoated flasks. The 857933-349-R-J2-PDC line was cultured in 6C/Colon 1B media containing advanced DMEM/F-12 (Thermo Fisher Scientific, cat. 12634028), 10 mM HEPES (Thermo Fisher Scientific, cat. 15630080), 1X GlutaMAX supplement (Thermo Fisher Scientific, cat. 35050061), 0.1 mg/mL primocin (InvivoGen, San Diego, CA, cat. ant-pm-2), 10% defined fetal bovine serum, heat inactivated (HyClone Laboratories Inc., Logan, UT, cat. SH30070.03HI), 50% L-WRN conditioned media (ATCC, cat. CRL-3276), 1.25 mM N-Acetyl-L-cysteine (Sigma-Aldrich, cat. A9165), 10 mM nicotinamide (Sigma-Aldrich, cat. N0636), 1X B-27 supplement (Thermo Fisher Scientific, cat. 17504044), 1X N-2 supplement (Thermo Fisher Scientific, cat. […]

[1] = compound alone, run of 01/19/2024
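Note: luminescence signal used as surrogate measure of viable cells; spheroids exposed to compounds for seven days before readout.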
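Throughout, for viability, T/C: 100% = DMSO vehicle control viability as luminescence relative to vehicle.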

Compound	viability, T/C (compound 0.0316 µM)	viability, T/C (compound 0.1 µM)	viability, T/C (compound 0.316 µM)	viability, T/C (compound 1 µM)	viability, T/C (compound 3.16 µM)	viability, T/C (compound 10 µM)	IC50 (compound alone, run of 01/08/2024) [nM]	IC50 [1] [nM]	viability, T/C (compound 0.000316 µM)	viability, T/C (compound 0.001 µM)	viability, T/C (compound 0.00316 µM)	viability, T/C (compound 0.01 µM)	IC50 (curve of compound)
Cc1cccc(N(C)C(=O)C2C(O)CCN2c2nc(C)cc(C(F)(F)F)c2C#N)c1 (centres undefined)	103% [middle of 13 runs]	102% [middle of 13 runs]	98% [middle of 13 runs]	100% [middle of 13 runs]	104% [middle of 13 runs]	106% [middle of 13 runs]	> 10000	> 10000	–	–	–	–	–
Cn1ncnc1[C@H]1c2n[nH]c(=O)c3cc(F)cc(c23)N[C@@H]1c1ccc(F)cc1	40.5% and 78.3% and 47.5%	30.4% and 63.1% and 29%	–	–	–	–	–	–	101% and 105% and 93.1%	96.8% and 94.6% and 88.7%	78% and 94.1% and 76.6%	71% and 86% and 60.1%	23.4 nM and > 100 nM
Nc1ccc(C#CCN(C(=O)Cc2ncc(C(F)(F)F)cc2C(F)(F)F)c2ccc(F)cc2)nn1	100% [middle of 13 runs]	103% [middle of 13 runs]	99.6% [middle of 13 runs]	101% [middle of 13 runs]	–	107% [middle of 13 runs]	–	> 10000	–	–	–	–	–
Nc1ccn(C2OC(CO)C(O)C2(F)F)c(=O)n1 (centres undefined)	20% and 68.1% and 17.7%	18.2% and 6.89% and 16%	17.5% and 6.81% and 18.4%	19.9% and 6.79% and 18.6%	16.3% and 6.33% and 14.9%	15.8% and 5.46% and 15%	–	–	–	–	–	–	< 31.6 nM and 44.4 nM
O=C(Nc1ccc(O)c(NS(=O)(=O)c2ccc(F)cc2)c1)c1ccc(-c2ccccc2)cc1	100% and 92.5% and 95.2%	106% and 123% and 96.5%	105% and 106% and 107%	103% and 107% and 99.5%	113% and 122% and 114%	103% and 119% and 63.5%	–	–	–	–	–	–	> 10000 nM
O=C(c1cc(Cc2n[nH]c(=O)c3ccccc23)ccc1F)N1CCN(C(=O)C2CC2)CC1	95.1% and 91.7% and 93.1%	82.3% and 93.9% and 102%	68.2% and 72.8% and 97.3%	69.8% and 78% and 84.5%	30.4% and 29.6% and 69.6%	16.1% and 16.5% and 9.45%	–	–	–	–	–	–	1590 nM and 1930 nM and 4520 nM
O=c1[nH]cc(F)c(=O)[nH]1	89.3% and 95% and 104%	103% and 106% and 96%	92.2% and 102% and 97.8%	84% and 89.3% and 89.6%	70.4% and 45.9% and 66.5%	45.4% and 32.2% and 40.9%	–	–	–	–	–	–	8200 nM and 2830 nM and 6660 nM
